This note sets out measurements from patent publication US7709471B2, “Compounds” (AstraZeneca AB, priority 2006, dated 2010).

The test has as its system human colon tumour cell line HT29. The test can be described thus: Cellular Assay (phosphohistone H3 Ser10 mitotic marker, HT29). Format: cell-based. The settings on record: HT-29, 24 h, HT29 cells, read-out: IC50 (cellular assay, phosphohistone H3).

Structures are written as SMILES.

Procedure: Chromosome condensation in mitosis is accompanied by phosphorylation of histone H3 on serine 10.
After 24 hours, cells were fixed in 3.7% (v/v) formaldehyde then permeabilised and blocked for 10 minutes in 100 μl 0.5% (v/v) Triton X-100, 1% (w/v) bovine serum albumin (BSA) in phosphate buffered saline (PBS). […] The raw assay data were analysed by non-linear regression analysis and used to determine an IC50 value for each compound.

For orientation: IC50 means the concentration that gives 50% inhibition. As for `CN1CC[C@@H](NC(=O)c2cc(F)c(Nc3ncc4c(n3)N(C3CCCC3)CC3(CC3)C(=O)N4C)cc2F)C1` [Example 400, 4-(9′-cyclopentyl-5′-methyl-6′-oxo-5′,6′,8′,9′-tetrahydrospiro[cyclopropane-1,7′-pyrimido[5,4-b][1,4]diazepine]-2′-ylamino)-2,5-difluoro-N-[(3R)-1-methylpyrrolidin-3-yl]benzamide], the concentration for half-maximal inhibition (IC50) is less than 0.3 µM.

For the molecule `CN1CCC(NC(=O)c2cc(F)c(Nc3ncc4c(n3)N(C3CCCCC3)CCC(=O)N4C)cc2Cl)CC1` [Example 411, 2-chloro-4-[(2-cyclohexyl-6-methyl-5-oxo-2,6,9,11-tetrazabicyclo[5.4.0]undeca-7,9,11-trien-10-yl)amino]-5-fluoro-N-(1-methyl-4-piperidyl)benzamide], the IC50 was less than 1 µM.

Consider `COc1cc(C(=O)NC2C[C@H]3CCC[C@@H](C2)N3C)ccc1Nc1ncc2c(n1)N(C1CCCC1)CC(C)(C)C(=O)N2` (stereo partly drawn) [Example 278, 4-[(2-cyclopentyl-4,4-dimethyl-5-oxo-2,6,9,11-tetrazabicyclo[5.4.0]undeca-7,9,11-trien-10-yl)amino]-3-methoxy-N-[(1S,5R)-9-methyl-9-azabicyclo[3.3.1]non-7-yl]benzamide], for which the IC50 was less than 1 µM.

For the molecule `CCN1CCC(NC(=O)c2cc(Cl)c(Nc3ncc4c(n3)N(C3CCCC3)CC3(CC3)C(=O)N4C)cc2F)CC1` [Example 393, 5-chloro-4-(9′-cyclopentyl-5′-methyl-6′-oxo-5′,6′,8′,9′-tetrahydrospiro[cyclopropane-1,7′-pyrimido[5,4-b][1,4]diazepine]-2′-ylamino)-N-(1-ethyl-4-piperidyl)-2-fluoro-benzamide], the IC50 is less than 0.3 µM.

`COc1cc(C(=O)N[C@@H]2CCN(C)C2)ccc1Nc1ncc2c(n1)N(C(C)C)CC(C)(C)C(=O)N2C` [Example 299, 3-methoxy-N-[(3R)-1-methylpyrrolidin-3-yl]-4-[(4,4,6-trimethyl-5-oxo-2-propan-2-yl-2,6,9,11-tetrazabicyclo[5.4.0]undeca-7,9,11-trien-10-yl)amino]benzamide]: the IC50 was less than 0.3 µM.

In the case of `CCN1CCC(NC(=O)c2cc(OC)c(Nc3ncc4c(n3)N(C3CCCCC3)CCC(=O)N4C)cc2F)CC1` [Example 422, 4-[(2-cyclohexyl-6-methyl-5-oxo-2,6,9,11-tetrazabicyclo[5.4.0]undeca-7,9,11-trien-10-yl)amino]-N-(1-ethyl-4-piperidyl)-2-fluoro-5-methoxy-benzamide], the IC50 was less than 0.3 µM.

As for `COc1cc(C(=O)N[C@@H]2CCN(C)C2)c(F)cc1Nc1ncc2c(n1)N(C1CCCC1)CC(C)(C)C(=O)N2C` [Example 364, 4-[(2-cyclopentyl-4,4,6-trimethyl-5-oxo-2,6,9,11-tetrazabicyclo[5.4.0]undeca-7,9,11-trien-10-yl)amino]-2-fluoro-5-methoxy-N-[(3R)-1-methylpyrrolidin-3-yl]benzamide], the IC50 is less than 0.3 µM.

As to `COc1cc(C(=O)NCCCN(C)C)ccc1Nc1ncc2c(n1)N(C(C)C)CC(C)(C)C(=O)N2C` [Example 303, N-(3-dimethylaminopropyl)-3-methoxy-4-[(4,4,6-trimethyl-5-oxo-2-propan-2-yl-2,6,9,11-tetrazabicyclo[5.4.0]undeca-7,9,11-trien-10-yl)amino]benzamide], the IC50 is less than 0.3 µM.

Consider `COc1cc(C(=O)NCCN2CCCC2)ccc1Nc1ncc2c(n1)N(C(C)C)CC(C)(C)C(=O)N2C` [Example 301, 3-methoxy-N-(2-pyrrolidin-1-ylethyl)-4-[(4,4,6-trimethyl-5-oxo-2-propan-2-yl-2,6,9,11-tetrazabicyclo[5.4.0]undeca-7,9,11-trien-10-yl)amino]benzamide], for which the IC50 is less than 1 µM.

As to `CN1C(=O)C2(CC2)CN(C2CCCC2)c2nc(Nc3cc(F)c(C(=O)NCCN4CCCC4)cc3F)ncc21` [Example 397, 4-(9′-cyclopentyl-5′-methyl-6′-oxo-5′,6′,8′,9′-tetrahydrospiro[cyclopropane-1,7′-pyrimido[5,4-b][1,4]diazepine]-2′-ylamino)-2,5-difluoro-N-(2-pyrrolidin-1-ylethyl)benzamide], the IC50 is less than 0.3 µM.
